Measurements from patent US20260083851A1 (AVILAR THERAPEUTICS, INC., priority 2022, published 2026).
Read-outs that look alike come from different tables or passages of the source. Starred links: 1 amine or outer side, 2 acyl side, 3 side chain; linkers in the order of their positions; H or OH if unused. Positions of bridges follow the written chain, without caps; N, C: chain ends. Non-standard residues stand in square brackets, D forms with d. Residues, ends and D or L forms follow the SMILES beside them. ξ: configuration not given here. *: point of attachment. X1 = O=C(CCOCC(COCCC(=O)NCCOCCOCCOCCOCC1OCC(Nc2cncc(C(F)(F)F)n2)C(O)C1O)NCC(=O)*)NCCOCCOCCOCCOCC1OCC(Nc2cncc(C(F)(F)F)n2)C(O)C1O; ξPro(4ξ-NH2) = O=C(C1CC(N[*:3])CN1[*:1])[*:2]

Assays:
IgG = IgG SPR binding; conditions: second table, read-out: IgG KD
HepG2 cells = test: Cellular uptake assay (high-content imaging); type: cell-based, human; conditions: Homo sapiens, 100 nM AF488-labeled antibody, 6 hours at 37° C., the 25th table, read-out: Uptake EC50
Description: The cellular uptake assay is designed to measure compound-mediated cellular uptake of fluorescently labeled antibody following ternary complex formation with the ASGPR receptor and endocytosis of the entire complex into cells. The optimal concentration of compound will result in the maximum number of cells with intracellular antibody and is represented as the peak ratio of antibody-positive cells over the total number of cells. As with the ternary complex formation assay, too much or too little compound will result in suboptimal complex formation and fewer cells will have measurable intracellular fluorescence.
Human IgG (Sigma-Aldrich, 14506) was covalently labeled with Alexa Fluor 488 using the Alexa Fluor™ 488 Protein Labeling Kit (Thermo Fisher, A10235) following the manufacturer's instructions. HepG2 cells were plated in DMEM supplemented with 10% FBS at 5,000 cells per well in a 96-well microtiter plate and incubated for approximately 18 hours at 37° C./5% CO2. For studies using human IgG, 100 nM AF488-labeled human IgG antibodies and serial dilutions of IgG-based degrader (0.1% DMSO final concentration) were added to the cells and the mixture was incubated at 37° C. for 6 hours. For studies using DNP, 100 nM AF488-labeled DNP antibodies and serial dilutions of DNP-based degrader (0.1% DMSO final concentration) were added to the cells and the mixture was incubated at 37° C. for 6 hours. HepG2 cells were fixed in 100% methanol at −20° C. for 20 min, washed 3× with PBS, then stained with DAPI (Thermo, Cat #H3570). HepG2 cells were imaged for DAPI and Alexa Fluor 488 using the Operetta CLS, high-content analysis system (PerkinElmer). Data is presented as the ratio of the number of cells positive for hIgG or DNP (AF-488 fluorescence) over the total cell number (measured by DAPI).

[1] = target: T1, ASGPR receptor on HepG2 cells (ternary complex with AF488-labeled antibody) (Homo sapiens, UniProt P07306); test: Ternary complex formation assay (flow cytometry, cell-associated AF488 fluorescence); type: cell-based
T1 construct: host or cells: HepG2
T1 sequence (P07306 1-291): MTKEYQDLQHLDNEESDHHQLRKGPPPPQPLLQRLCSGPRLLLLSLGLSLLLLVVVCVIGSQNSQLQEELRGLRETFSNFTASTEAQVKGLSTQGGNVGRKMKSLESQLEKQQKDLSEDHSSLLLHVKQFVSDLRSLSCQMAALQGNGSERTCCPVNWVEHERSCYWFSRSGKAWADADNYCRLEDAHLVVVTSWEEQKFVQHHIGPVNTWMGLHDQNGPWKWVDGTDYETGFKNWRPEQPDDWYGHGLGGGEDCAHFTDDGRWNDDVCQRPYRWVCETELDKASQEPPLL
T1 sequence (P07307 1-311 partner): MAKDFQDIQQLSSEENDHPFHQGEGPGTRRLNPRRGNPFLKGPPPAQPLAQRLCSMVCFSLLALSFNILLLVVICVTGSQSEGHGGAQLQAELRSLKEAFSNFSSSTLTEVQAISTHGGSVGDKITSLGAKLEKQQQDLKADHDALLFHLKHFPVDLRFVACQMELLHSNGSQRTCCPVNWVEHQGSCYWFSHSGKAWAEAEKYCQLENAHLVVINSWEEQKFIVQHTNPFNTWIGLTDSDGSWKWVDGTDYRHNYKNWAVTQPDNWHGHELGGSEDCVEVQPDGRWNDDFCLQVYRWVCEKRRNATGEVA
Experimental: Human IgG (Sigma-Aldrich, 14506) was covalently labeled with Alexa Fluor 488 using the Alexa Fluor™ 488 Protein Labeling Kit (Thermo Fisher, A10235) following the manufacturer's instructions. HepG2 cells (ATCC, HB-8065) were cultured to about 70% confluence and harvested by trypsinization. Single cell suspensions of HepG2 cells were plated in 96 well plates at 1×10^5 cells/well in cell culture media (DMEM supplemented with 10% FBS) and placed at 4° C. For studies using human IgG, cells were incubated with 100 nM AF488-labeled anti-human IgG and serial dilutions of IgG-based degrader for 1 hour at 4° C. For studies using DNP, cells were incubated with 100 nM AF488-labeled polyclonal rabbit anti-dinitrophenyl (DNP) antibodies (ThermoFisher) and serial dilutions of DNP-based degrader for 1 hour at 4° C. After washing once with ice-cold PBS containing 0.1% BSA and 0.1% sodium azide, cells were resuspended in 150 uL PBS+0.1% BSA and cell-associated AF488 fluorescence was measured by flow cytometry using the iQue® Screener PLUS Flow Cytometer (IntelliCyt). […]

ASGPR = target: T2, ASGPR (Homo sapiens, UniProt P07306); test: ASGPR SPR binding
T2 construct: biotin (biotinylated)
T2 sequence (P07306 1-291): T1 sequence (P07306 1-291)

[2] = read-out: TCF EC50, 100 nM AF488-labeled antibody, 1 hour at 4° C., the 25th table, class symbols
[3] = second table, read-out: ASGPR KD
[4] = read-out: ASGPR KD, second table

| Structure (SMILES) | Kd (IgG) [nM] | EC50 (HepG2 cells; class symbols) [nM] | EC50 ([1]; 100 nM AF488-labeled antibody, 1 hour at 4° C., the 25th table, numeric bounds, nM from footnote, read-out: TCF EC50) [nM] | EC50 (HepG2 cells; numeric bounds, nM from footnote) [nM] | EC50 [1, 2] [nM] | Kd (ASGPR; [3]) [nM] | Kd (ASGPR; [4]) [nM] | EC50 ([1]; 100 nM AF488-labeled antibody, 1 hour at 4° C., the 25th table, class symbols, read-out: TCF EC50) [nM] |
| --- | --- | --- | --- | --- | --- | --- | --- | --- |
| CC(C)C[C@@H]1NC(=O)[C@H](Cc2cnc[nH]2)NC(=O)[C@H](Cc2c[nH]c3ccccc23)NC(=O)[C@H](C)NC(=O)[C@@H]2CSSC[C@H](NC(=O)[C@H](Cc3c[nH]c4ccccc34)NC(=O)[C@H](C(C)C)NC(=O)[C@H](CC(C)C)NC(=O)[C@H](CCC(=O)O)NC(=O)CNC1=O)C(=O)N[C@@H]([C@@H](C)O)C(=O)N1CCC[C@@H]1C(=O)N1C[C@@H](NC(=O)c3ccc4c(c3)C(=O)c3cc(C(=O)NC[C@H]5OC[C@H](Nc6cncc(C(F)(F)F)n6)[C@@H](O)[C@H]5O)ccc3-4)C[C@H]1C(=O)N[C@@H](CC(=O)O)C(=O)N2 [compound 40] | < 100 | 100 to 500 |  |  |  |  |  |  |
| COC1O[C@H](Cn2cc(CCCC(=O)N[C@H]3C[C@H]4C(=O)N[C@@H](CC(=O)O)C(=O)N[C@H]5CSSC[C@H](NC(=O)[C@H](Cc6c[nH]c7ccccc67)NC(=O)[C@H](C(C)C)NC(=O)[C@H](CC(C)C)NC(=O)[C@H](CCC(=O)O)NC(=O)CNC(=O)[C@H](CC(C)C)NC(=O)[C@H](Cc6cnc[nH]6)NC(=O)[C@H](Cc6c[nH]c7ccccc67)NC(=O)[C@H](C)NC5=O)C(=O)N[C@@H]([C@@H](C)O)C(=O)N5CCC[C@@H]5C(=O)N4C3)nn2)[C@H](O)[C@H](O)[C@H]1NC(C)=O (stereo partly shown) [compound 80] |  |  | > 4360 | > 10000 |  |  |  |  |
| CC(C)CC1NC(=O)C(Cc2cnc[nH]2)NC(=O)C(Cc2c[nH]c3ccccc23)NC(=O)C(C)NC(=O)C2CSSCC(NC(=O)C(Cc3c[nH]c4ccccc34)NC(=O)C(C(C)C)NC(=O)C(CC(C)C)NC(=O)C(CCC(=O)O)NC(=O)CNC1=O)C(=O)NC(C(C)O)C(=O)N1CCCC1C(=O)N1CC(NC(=O)CCCc3cn(CC4OCC(Nc5cncc(C(F)(F)F)n5)C(O)C4O)nn3)CC1C(=O)NC(CC(=O)O)C(=O)N2 (stereo not shown) [compound 78] | < 100 |  |  |  | < 100 | < 100 |  |  |
| CC(C)CC1NC(=O)C(Cc2cnc[nH]2)NC(=O)C(Cc2c[nH]c3ccccc23)NC(=O)C(C)NC(=O)C2CSSCC(NC(=O)C(Cc3c[nH]c4ccccc34)NC(=O)C(C(C)C)NC(=O)C(CC(C)C)NC(=O)C(CCC(=O)O)NC(=O)CNC1=O)C(=O)NC(C(C)O)C(=O)N1CCCC1C(=O)N1CC(NC(=O)c3ccc(C(=O)NCC4OCC(Nc5cncc(C(F)(F)F)n5)C(O)C4O)cc3)CC1C(=O)NC(CC(=O)O)C(=O)N2 (stereo not shown) [compound 43] | < 100 |  |  |  | > 1000 | < 100 |  |  |
| CC(C)CC1NC(=O)C(Cc2cnc[nH]2)NC(=O)C(Cc2c[nH]c3ccccc23)NC(=O)C(C)NC(=O)C2CSSCC(NC(=O)C(Cc3c[nH]c4ccccc34)NC(=O)C(C(C)C)NC(=O)C(CC(C)C)NC(=O)C(CCC(=O)O)NC(=O)CNC1=O)C(=O)NC(C(C)O)C(=O)N1CCCC1C(=O)N1CC(NC(=O)CC(=O)NCC3OCC(Nc4cncc(C(F)(F)F)n4)C(O)C3O)CC1C(=O)NC(CC(=O)O)C(=O)N2 (stereo not shown) [compound 38] | < 100 |  |  |  | < 100 | < 100 |  |  |
| CC(C)CC1NC(=O)C(Cc2cnc[nH]2)NC(=O)C(Cc2c[nH]c3ccccc23)NC(=O)C(C)NC(=O)C2CSSCC(NC(=O)C(Cc3c[nH]c4ccccc34)NC(=O)C(C(C)C)NC(=O)C(CC(C)C)NC(=O)C(CCC(=O)N(C)C)NC(=O)CNC1=O)C(=O)NC(C(C)O)C(=O)N1CCCC1C(=O)N1CC(NC(=O)CNC(COCCC(=O)NCCOCCOCCOCCOCC3OCC(Nc4cncc(C(F)(F)F)n4)C(O)C3O)COCCC(=O)NCCOCCOCCOCCOCC3OCC(Nc4cncc(C(F)(F)F)n4)C(O)C3O)CC1C(=O)NC(CC(N)=O)C(=O)N2 (stereo not shown) [compound 73] (cyclo(GE(NMe2)LVWCTP[ξPro(4ξ-NH2)](X1)NCAWHL); disulfide 6-11; configuration not given here) | < 100 |  |  |  | < 100 |  | < 100 |  |
| CC(C)CC1NC(=O)C(Cc2cnc[nH]2)NC(=O)C(Cc2c[nH]c3ccccc23)NC(=O)C(C)NC(=O)C2CSSCC(NC(=O)C(Cc3c[nH]c4ccccc34)NC(=O)C(C(C)C)NC(=O)C(CC(C)C)NC(=O)C(CCC(=O)O)NC(=O)CNC1=O)C(=O)NC(C(C)O)C(=O)N1CCCC1C(=O)N1CC(NC(=O)CCOCCOCCOCCOCCNC(=O)CCCc3cn(CCCCCC(=O)NC(COCCC(=O)NCCOCCOCCOCCOCC4OCC(Nc5nccc(C(F)(F)F)n5)C(O)C4O)(COCCC(=O)NCCOCCOCCOCCOCC4OCC(Nc5nccc(C(F)(F)F)n5)C(O)C4O)COCCC(=O)NCCOCCOCCOCCOCC4OCC(Nc5nccc(C(F)(F)F)n5)C(O)C4O)nn3)CC1C(=O)NC(CC(=O)O)C(=O)N2 (stereo not shown) [compound 88] | < 100 |  |  |  |  | < 100 |  | < 100 |
| CC(C)CC1NC(=O)C(Cc2cnc[nH]2)NC(=O)C(Cc2c[nH]c3ccccc23)NC(=O)C(C)NC(=O)C2CSSCC(NC(=O)C(Cc3c[nH]c4ccccc34)NC(=O)C(C(C)C)NC(=O)C(CC(C)C)NC(=O)C(CCC(=O)O)NC(=O)CNC1=O)C(=O)NC(C(C)O)C(=O)N1CCCC1C(=O)N1CC(NC(=O)C3CCC(C(=O)NCC4OCC(Nc5cncc(C(F)(F)F)n5)C(O)C4O)CC3)CC1C(=O)NC(CC(=O)O)C(=O)N2 (stereo not shown) [compound 45] | < 100 |  |  |  | > 1000 | 100 to 500 |  |  |
| CC(C)CC1NC(=O)C(Cc2cnc[nH]2)NC(=O)C(Cc2c[nH]c3ccccc23)NC(=O)C(C)NC(=O)C2CSSCC(NC(=O)C(Cc3c[nH]c4ccccc34)NC(=O)C(C(C)C)NC(=O)C(CC(C)C)NC(=O)C(CCC(=O)O)NC(=O)CNC1=O)C(=O)NC(C(C)O)C(=O)N1CCCC1C(=O)N1CC(NC(=O)COCCOCC(=O)NCC3OCC(Nc4cncc(C(F)(F)F)n4)C(O)C3O)CC1C(=O)NC(CC(=O)O)C(=O)N2 (stereo not shown) [compound 50] | < 100 |  |  |  | < 100 | < 100 |  |  |
| CC(C)CC1NC(=O)C(Cc2cnc[nH]2)NC(=O)C(Cc2c[nH]c3ccccc23)NC(=O)C(C)NC(=O)C2CSSCC(NC(=O)C(Cc3c[nH]c4ccccc34)NC(=O)C(C(C)C)NC(=O)C(CC(C)C)NC(=O)C(CCC(=O)N(C)C)NC(=O)CNC1=O)C(=O)NC(C(C)O)C(=O)N1CCCC1C(=O)N1CC(NC(=O)CNC(COCCC(=O)NCCOCCOCCOCCOCC3OCC(Nc4cncc(C(F)(F)F)n4)C(O)C3O)COCCC(=O)NCCOCCOCCOCCOCC3OCC(Nc4cncc(C(F)(F)F)n4)C(O)C3O)CC1C(=O)NC(C)C(=O)N2 (stereo not shown) [compound 72] (cyclo(GE(NMe2)LVWCTP[ξPro(4ξ-NH2)](X1)ACAWHL); disulfide 6-11; configuration not given here) | < 100 |  |  |  | < 100 |  | < 100 |  |
